Results published in patent US9346815B2, “5-chloro-2-difluoromethoxyphenyl pyrazolopyrimidine compounds, compositions and methods of use thereof” (Genentech, Inc., priority 2014, dated 2016).
pKi: −log10 of the molar value.

Assays:
[1] = biological target: isolated recombinant JAK2 kinase domain (Homo sapiens (Human), UniProt O60674); experiment: JAK2 enzyme assay (Caliper LabChip, peptide phosphorylation); type: biochemical; conditions: 25 μM ATP
[2] = test system: JAK1-dependent STAT6 phosphorylation downstream of IL-13 stimulation in BEAS-2B human bronchial epithelial cells; experiment: JAK1 pathway assay in BEAS-2B cells (IL-13-pSTAT6, MSD); type: cell-based; conditions: read-out: IL13-pSTAT6 EC50 (uM)_BEAS-2B
Procedure, shortened: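 Cells were preincubated with compounds (0.2% DMSO) for 30 min (TF-1, GM-CSF-starved overnight, serum-free OptiMEM, 300,000 cells/well) or 1 h (BEAS-2B, complete medium, 100,000 cells/well) at 37 °C.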

[3] = biological target: isolated recombinant JAK1 kinase domain (Homo sapiens (Human), UniProt P23458); experiment: JAK1 enzyme assay (Caliper LabChip, peptide phosphorylation); type: biochemical; conditions: isolated recombinant JAK1 kinase domain, 25 μM ATP
Chain of isolated recombinant JAK1 kinase domain (P23458 875-1153): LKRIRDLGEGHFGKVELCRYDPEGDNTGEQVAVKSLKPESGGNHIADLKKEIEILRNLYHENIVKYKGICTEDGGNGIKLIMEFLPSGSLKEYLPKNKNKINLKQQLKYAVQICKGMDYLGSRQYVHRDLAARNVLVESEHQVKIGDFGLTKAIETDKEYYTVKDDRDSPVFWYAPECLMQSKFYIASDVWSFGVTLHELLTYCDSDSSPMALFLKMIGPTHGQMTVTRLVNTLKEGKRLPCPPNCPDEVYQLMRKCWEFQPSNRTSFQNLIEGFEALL

Chain of isolated recombinant JAK2 kinase domain (O60674 849-1124): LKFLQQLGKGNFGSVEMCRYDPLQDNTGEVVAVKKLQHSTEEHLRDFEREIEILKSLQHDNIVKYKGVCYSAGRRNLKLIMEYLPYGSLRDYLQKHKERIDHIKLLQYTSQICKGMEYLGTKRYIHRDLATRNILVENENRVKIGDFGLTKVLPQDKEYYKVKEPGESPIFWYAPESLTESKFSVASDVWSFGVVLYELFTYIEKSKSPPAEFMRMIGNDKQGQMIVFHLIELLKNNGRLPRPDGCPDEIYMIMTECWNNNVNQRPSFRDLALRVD

SMILES	pKi [1]	EC50 [2]	pKi [3]
O=C(O)CN(CCn1cc(NC(=O)c2cnn3cccnc23)c(-c2cc(Cl)ccc2OC(F)F)n1)Cc1cccnc1 [Example 363, 2-[(2-[3-[5-chloro-2-(difluoromethoxy)phenyl]-4-[pyrazolo[1,5-a]pyrimidine-3-amido]-1H-pyrazol-1-yl]ethyl)(pyridin-3-ylmethyl)amino]acetic acid]	8.92	3.78 µM	8.38
CNC(=O)CN1CCN(C(=O)Cn2cc(NC(=O)c3cnn4cccnc34)c(-c3cc(Cl)ccc3OC(F)F)n2)CC1 [Example 383, N-[3-[5-chloro-2-(difluoromethoxy)phenyl]-1-(2-[4-[(methylcarbamoyl)methyl]piperazin-1-yl]-2-oxoethyl)-1H-pyrazol-4-yl]pyrazolo[1,5-a]pyrimidine-3-carboxamide]	9.18	0.277 µM	9.41
CN1CCN(C(=O)Cn2cc(NC(=O)c3cnn4cccnc34)c(-c3cc(Cl)ccc3OC(F)F)n2)CC1(C)C [Example 378, N-[3-[5-chloro-2-(difluoromethoxy)phenyl]-1-[2-oxo-2-(3,3,4-trimethylpiperazin-1-yl)ethyl]-1H-pyrazol-4-yl]pyrazolo[1,5-a]pyrimidine-3-carboxamide]	8.80	0.0874 µM	9.03
CC(C)CN1CCN(C(=O)Cn2cc(NC(=O)c3cnn4cccnc34)c(-c3cc(Cl)ccc3OC(F)F)n2)CC1 [Example 317, N-[3-[5-chloro-2-(difluoromethoxy)phenyl]-1-[2-[4-(2-methylpropyl)piperazin-1-yl]-2-oxoethyl]-1H-pyrazol-4-yl]pyrazolo[1,5-a]pyrimidine-3-carboxamide]	8.94	0.0229 µM	9.19
C[C@H]1COCCN1C1CCN(C(=O)Cn2cc(NC(=O)c3cnn4cccnc34)c(-c3cc(Cl)ccc3OC(F)F)n2)CC1 [Example 451, N-(3-(5-chloro-2-(difluoromethoxy)phenyl)-1-(2-(4-((S)-3-methyl-morpholino)piperidin-1-yl)-2-oxoethyl)-1H-pyrazol-4-yl)pyrazolo[1,5-a]pyrimidine-3-carboxamide]	8.81	0.0201 µM	9.35
CN1CCC(=CCn2cc(NC(=O)c3cnn4cccnc34)c(-c3cc(Cl)ccc3OC(F)F)n2)CC1 [Example 415, N-(3-(5-chloro-2-(difluoromethoxy)phenyl)-1-(2-(1-methylpiperidin-4-ylidene)ethyl)-1H-pyrazol-4-yl)pyrazolo[1,5-a]pyrimidine-3-carboxamide]	8.68	0.046 µM	8.52
O=C(Nc1cn(CCN2CCNCC2=O)nc1-c1cc(Cl)ccc1OC(F)F)c1cnn2cccnc12 [Example 417, N-(3-(5-chloro-2-(difluoromethoxy)phenyl)-1-(2-(2-oxopiperazin-1-yl)ethyl)-1H-pyrazol-4-yl)pyrazolo[1,5-a]pyrimidine-3-carboxamide]	8.86	0.0934 µM	8.54
O=C(Nc1cn([C@@H]2CCNC[C@H]2O)nc1-c1cc(Cl)ccc1OC(F)F)c1cnn2cccnc12 [Example 358, N-[3-[5-chloro-2-(difluoromethoxy)phenyl]-1-[(3R,4R)-3-hydroxypiperidin-4-yl]-1H-pyrazol-4-yl]pyrazolo[1,5-a]pyrimidine-3-carboxamide]	9.18	0.0133 µM	9.03
CC1CN(C)CCN1C(=O)Cn1cc(NC(=O)c2cnn3cccnc23)c(-c2cc(Cl)ccc2OC(F)F)n1 (stereo not drawn) [Example 375, N-[3-[5-chloro-2-(difluoromethoxy)phenyl]-1-[2-(2,4-dimethylpiperazin-1-yl)-2-oxoethyl]-1H-pyrazol-4-yl]pyrazolo[1,5-a]pyrimidine-3-carboxamide]	8.81	0.0716 µM	9.12
CN1CCN(CC2CCN(C(=O)Cn3cc(NC(=O)c4cnn5cccnc45)c(-c4cc(Cl)ccc4OC(F)F)n3)CC2)CC1 [Example 350, N-[3-[5-chloro-2-(difluoromethoxy)phenyl]-1-(2-[4-[(4-methylpiperazin-1-yl)methyl]piperidin-1-yl]-2-oxoethyl)-1H-pyrazol-4-yl]pyrazolo[1,5-a]pyrimidine-3-carboxamide]	8.85	0.0094 µM	9.37
N#CCCCNC1CCN(C(=O)Cn2cc(NC(=O)c3cnn4cccnc34)c(-c3cc(Cl)ccc3OC(F)F)n2)CC1 [Example 456, N-(3-(5-chloro-2-(difluoromethoxy)phenyl)-1-(2-(4-(3-cyanopropyl-amino)piperidin-1-yl)-2-oxoethyl)-1H-pyrazol-4-yl)pyrazolo[1,5-a]pyrimidine-3-carboxamide]	8.95	0.041 µM	9.31
O=C(Nc1cn(CCNCc2ncco2)nc1-c1cc(Cl)ccc1OC(F)F)c1cnn2cccnc12 [Example 367, N-[3-[5-chloro-2-(difluoromethoxy)phenyl]-1-[2-[(1,3-oxazol-2-ylmethyl)amino]ethyl]-1H-pyrazol-4-yl]pyrazolo[1,5-a]pyrimidine-3-carboxamide]	9.30	0.0352 µM	9.08
O=C(Nc1cn(CCNCc2ccc(O)cc2)nc1-c1cc(Cl)ccc1OC(F)F)c1cnn2cccnc12 [Example 328, N-[3-[5-chloro-2-(difluoromethoxy)phenyl]-1-(2-[[(4-hydroxyphenyl)methyl]amino]ethyl)-1H-pyrazol-4-yl]pyrazolo[1,5-a]pyrimidine-3-carboxamide]	9.64	0.0102 µM	9.68
COC(=O)[C@@H](N)CCn1cc(NC(=O)c2cnn3cccnc23)c(-c2cc(Cl)ccc2OC(F)F)n1 [Example 387, methyl (2S)-2-amino-4-[3-[5-chloro-2-(difluoromethoxy)phenyl]-4-[pyrazolo[1,5-a]pyrimidine-3-amido]-1H-pyrazol-1-yl]butanoate]	9.34	0.0107 µM	8.91
O=C(Nc1cn(CC(O)CN2CCCCC2)nc1-c1cc(Cl)ccc1OC(F)F)c1cnn2cccnc12 (stereo not drawn) [Example 405, N-(3-(5-chloro-2-(difluoromethoxy)phenyl)-1-(2-hydroxy-3-(piperidin-1-yl)propyl)-1H-pyrazol-4-yl)pyrazolo[1,5-a]pyrimidine-3-carboxamide]	9.17	0.0257 µM	8.76
CN(CCC#N)C1CCC(=CCn2cc(NC(=O)c3cnn4cccnc34)c(-c3cc(Cl)ccc3OC(F)F)n2)CC1 (stereo not drawn) [Example 420, N-(3-(5-chloro-2-(difluoromethoxy)phenyl)-1-(2-(4-((2-cyanoethyl)(methyl)amino)cyclohexylidene)ethyl)-1H-pyrazol-4-yl)pyrazolo[1,5-a]pyrimidine-3-carboxamide]	9.09	0.0301 µM	9.24
CN1CCN(C2CCN(C(=O)Cn3cc(NC(=O)c4cnn5cccnc45)c(-c4cc(Cl)ccc4OC(F)F)n3)CC2)C(=O)C1 [Example 448, N-(3-(5-chloro-2-(difluoromethoxy)phenyl)-1-(2-(4-(4-methyl-2-oxopiperazin-1-yl)piperidin-1-yl)-2-oxoethyl)-1H-pyrazol-4-yl)pyrazolo[1,5-a]pyrimidine-3-carboxamide]	9.06	0.0425 µM	9.44
O=C1CCC(Cn2cc(NC(=O)c3cnn4cccnc34)c(-c3cc(Cl)ccc3OC(F)F)n2)O1 (stereo not drawn) [Example 323]	9.48	0.0209 µM	9.17
CN1CCN(C(=O)C2CCN(C(=O)Cn3cc(NC(=O)c4cnn5cccnc45)c(-c4cc(Cl)ccc4OC(F)F)n3)CC2)CC1 [Example 398, N-(3-(5-chloro-2-(difluoromethoxy)phenyl)-1-(2-(4-(4-methylpiperazine-1-carbonyl)piperidin-1-yl)-2-oxoethyl)-1H-pyrazol-4-yl)pyrazolo[1,5-a]pyrimidine-3-carboxamide]	8.84	0.0183 µM	9.30
O=C(Nc1cn(CCN[C@H]2CCOC2)nc1-c1cc(Cl)ccc1OC(F)F)c1cnn2cccnc12 [Example 399, N-(3-(5-chloro-2-(difluoromethoxy)phenyl)-1-(2-((S)-tetrahydrofuran-3-ylamino)ethyl)-1H-pyrazol-4-yl)pyrazolo[1,5-a]pyrimidine-3-carboxamide]	9.41	0.0232 µM	9.05
CN(C)C(=O)[C@@H]1CCCN1C1CCN(C(=O)Cn2cc(NC(=O)c3cnn4cccnc34)c(-c3cc(Cl)ccc3OC(F)F)n2)CC1 [Example 424, N-(3-(5-chloro-2-(difluoromethoxy)phenyl)-1-(2-(4-((S)-2-(dimethylcarbamoyl)pyrrolidin-1-yl)piperidin-1-yl)-2-oxoethyl)-1H-pyrazol-4-yl)pyrazolo[1,5-a]pyrimidine-3-carboxamide]	8.46	0.0987 µM	8.95
CN(CC(C)(C)C#N)C1CCN(C(=O)Cn2cc(NC(=O)c3cnn4cccnc34)c(-c3cc(Cl)ccc3OC(F)F)n2)CC1 [Example 465, N-(3-(5-chloro-2-(difluoromethoxy)phenyl)-1-(2-(4-((2-cyano-2-methylpropyl)(methyl)amino)piperidin-1-yl)-2-oxoethyl)-1H-pyrazol-4-yl)pyrazolo[1,5-a]pyrimidine-3-carboxamide]	9.25	0.0114 µM	9.62
CCCN1CCN(C(=O)Cn2cc(NC(=O)c3cnn4cccnc34)c(-c3cc(Cl)ccc3OC(F)F)n2)CC1 [Example 319, N-[3-[5-chloro-2-(difluoromethoxy)phenyl]-1-[2-oxo-2-(4-propylpiperazin-1-yl)ethyl]-1H-pyrazol-4-yl]pyrazolo[1,5-a]pyrimidine-3-carboxamide]	9.07	0.0577 µM	9.30
